According to patent US9296720B2, “Carboxamide-substituted heteroaryl-pyrazoles and the use thereof” (AiCuris GmbH & Co. KG, priority 2011, dated 2016):
Like-named read-outs stand apart in the source and are kept apart here.

Experiments:
Type in all cases: cell-based
HIV-1LAI Wild Type = assay: AlamarBlue viability assay, HIV-1LAI-infected MT4 cells; details: 10% FCS
Outline: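 MT4 cells infected with HIV-1LAI (MOI 0.01, supernatant infection) cultured 5 days at 37 °C with compounds in RPMI with 2% or 10% FCS, 1% DMSO final. AlamarBlue fluorescence after 3 h; EC50 as 50% protection relative to uninfected cells, CC50 from high-concentration cytotoxicity.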

HIV-1NL4-3 K103N-Y181C = assay: Luminescence reduction assay, MT4 cells infected with HIV-1NL4-3 luciferase reporter virus, RT mutant K103N-Y181C
Outline: (§1)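 MT4 cells pellet-infected 2 h at 37° C with HIV-1NL4-3 reporter virus (lu164 replacing nef; wild type or site-directed RT mutants), washed, then incubated with compound dilutions (1% DMSO, 2% or 10% FCS) for 5 days. Secreted luciferase read with coelenterazine buffer; EC50 = concentration halving RLU versus untreated infected cells.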

HIV-1NL4-3 Wild Type = assay: Luminescence reduction assay, MT4 cells infected with HIV-1NL4-3 luciferase reporter virus, wild type; details: 2% FCS
Outline: as §1

[1] = Human immunodeficiency virus 1, MT4, MT4 cells
[2] = Human immunodeficiency virus 1, MT4, read-out: EC50 (μM) MT4 Cells HIV-1NL4-3 K103N-Y181C 2% FCS, MT4 cells, HIV-1NL4-3 K103N-Y181C, 2% FCS
[3] = read-out: EC50 (μM) MT4 Cells HIV-1NL4-3 K103N-Y181C 2% FCS, MT4 cells, HIV-1NL4-3 K103N-Y181C, 2% FCS

| Compound | EC50 (HIV-1LAI Wild Type; [1]) | EC50 (HIV-1NL4-3 K103N-Y181C; [2]) | EC50 (HIV-1NL4-3 Wild Type; [1]) | EC50 (HIV-1LAI Wild Type; MT4 cells) | EC50 (HIV-1NL4-3 K103N-Y181C; [3]) | EC50 (HIV-1NL4-3 Wild Type; MT4 cells) |
| --- | --- | --- | --- | --- | --- | --- |
| O=C1CN(C(=O)c2cc(-c3cc(F)cc(OC(F)F)c3)n(-c3ccnc(Cl)c3)n2)CCN1 [Example 69, 4-({1-(2-Chloropyridin-4-yl)-5-[3-(difluoromethoxy)-5-fluorophenyl]-1H-pyrazol-3-yl}carbonyl)piperazin-2-one] | 1.98 µM | 1.14 µM | 0.32 µM | – | – | – |
| O=C(c1cc(-c2cc(Br)cc(OC(F)(F)F)c2)n(-c2cccnc2)n1)N1CCS(=O)(=O)C1 [Example 32, {5-[3-Bromo-5-(trifluoromethoxy)phenyl]-1-(pyridin-3-yl)-1H-pyrazol-3-yl}(1,1-dioxido-1,3-thiazolidin-3-yl)methanone] | 0.083 µM | 0.014 µM | 0.007 µM | – | – | – |
| Cc1cc(-n2nc(C(=O)N3CC[S+]([O-])C3)cc2-c2cc(F)cc(Cl)c2)ccn1 (stereo not drawn) [Example 24, [5-(3-Chloro-5-fluorophenyl)-1-(2-methylpyridin-4-yl)-1H-pyrazol-3-yl](1-oxido-1,3-thiazolidin-3-yl)methanone] | 0.668 µM | > 3.3 µM | 0.066 µM | – | – | – |
| O=C1CN(C(=O)c2cc(-c3ccnc(Cl)c3)n(-c3cccc(Cl)c3)n2)CN1 [Example 114, 1-{[1-(3-Chlorophenyl)-5-(2-chloropyridin-4-yl)-1H-pyrazol-3-yl]carbonyl}imidazolidin-4-one] | 0.063 µM | 0.171 µM | 0.007 µM | – | – | – |
| O=C1CN(C(=O)c2cc(-c3cc(F)cc(Br)c3)n(-c3ccnc(Cl)c3)n2)CN1 [Example 92, 1-{[5-(3-Bromo-5-fluorophenyl)-1-(2-chloropyridin-4-yl)-1H-pyrazol-3-yl]carbonyl}imidazolidin-4-one] | 0.026 µM | 0.033 µM | 0.005 µM | – | – | – |
| O=C(c1cc(-c2cc(Br)cc(OC(F)(F)F)c2)n(-c2ccc(Cl)nc2)n1)N1CC[S+]([O-])C1 (racemic) [Example 37, {5-[3-Bromo-5-(trifluoromethoxy)phenyl]-1-(6-chloropyridin-3-yl)-1H-pyrazol-3-yl}(1-oxido-1,3-thiazolidin-3-yl)methanone] | 2.32 µM | 0.005 µM | 0.004 µM | – | – | – |
| O=C1CN(C(=O)c2cc(-c3cc(Br)cc(OC(F)(F)F)c3)n(-c3cncc(Cl)c3)n2)CN1 [Example 42, 1-({5-[3-Bromo-5-(trifluoromethoxy)phenyl]-1-(5-chloropyridin-3-yl)-1H-pyrazol-3-yl}carbonyl)imidazolidin-4-one] | 0.247 µM | 0.028 µM | 0.018 µM | – | – | – |
| COc1cc(-n2nc(C(=O)N3CNC(=O)C3)cc2-c2cc(F)cc(Cl)c2)ccn1 [Example 25, 1-{[5-(3-Chloro-5-fluorophenyl)-1-(2-methoxypyridin-4-yl)-1H-pyrazol-3-yl]carbonyl}imidazolidin-4-one] | 0.011 µM | 0.04 µM | 0.004 µM | – | – | – |
| COc1cc(Br)cc(-c2cc(C(=O)N3CCNC(=O)C3)nn2-c2ccnc(Cl)c2)c1 [Example 97, 4-{[5-(3-Bromo-5-methoxyphenyl)-1-(2-chloropyridin-4-yl)-1H-pyrazol-3-yl]carbonyl}piperazin-2-one] | 0.068 µM | 0.116 µM | 0.013 µM | – | – | – |
| O=C1CN(C(=O)c2cc(-c3cc(Br)cc(OC(F)(F)F)c3)n(-c3ccnc(Cl)c3)n2)CN1 [Example 48, 1-({5-[3-Bromo-5-(trifluoromethoxy)phenyl]-1-(2-chloropyridin-4-yl)-1H-pyrazol-3-yl}carbonyl)imidazolidin-4-one] | 0.111 µM | 0.007 µM | 0.01 µM | – | – | – |
| O=C1CN(C(=O)c2cc(-c3cc(Br)cc(OC(F)(F)F)c3)n(-c3ccccn3)n2)CN1 [Example 26, 1-({5-[3-Bromo-5-(trifluoromethoxy)phenyl]-1-(pyridin-2-yl)-1H-pyrazol-3-yl}carbonyl)imidazolidin-4-one] | > 3.3 µM | 0.071 µM | 0.12 µM | – | – | – |
| Cc1cc(-n2nc(C(=O)N3CCNC(=O)C3)cc2-c2cc(Br)cc(OC(F)(F)F)c2)ccn1 [Example 54, 4-({5-[3-Bromo-5-(trifluoromethoxy)phenyl]-1-(2-methylpyridin-4-yl)-1H-pyrazol-3-yl}carbonyl)piperazin-2-one] | 1.68 µM | 0.387 µM | 0.323 µM | – | – | – |
| O=C1CN(C(=O)c2cc(-c3cc(F)cc(Cl)c3)n(-c3ccccn3)n2)CN1 [Example 1, 1-{[5-(3-Chloro-5-fluorophenyl)-1-(pyridin-2-yl)-1H-pyrazol-3-yl]carbonyl}imidazolidin-4-one] | > 3.3 µM | > 3.3 µM | 0.345 µM | – | – | – |
| O=C(c1cc(-c2cc(F)cc(OC(F)(F)F)c2)n(-c2cccnc2)n1)N1CC[S+]([O-])C1 (racemic) [Example 60-1, {5-[3-Fluoro-5-(trifluoromethoxy)phenyl]-1-(pyridin-3-yl)-1H-pyrazol-3-yl}(1-oxido-1,3-thiazolidin-3-yl)methanone] | – | – | – | > 3.3 µM | > 3.3 µM | 0.431 µM |
| O=C1CN(C(=O)c2cc(-c3cc(Br)cc(OC(F)(F)F)c3)n(-c3cncc(F)c3)n2)CCN1 [Example 45, 4-({5-[3-Bromo-5-(trifluoromethoxy)phenyl]-1-(5-fluoropyridin-3-yl)-1H-pyrazol-3-yl}carbonyl)piperazin-2-one] | 0.55 µM | 0.232 µM | 0.095 µM | – | – | – |
| O=C1CN(C(=O)c2cc(-c3cc(F)cc(Br)c3)n(-c3cccnc3)n2)CCN1 [Example 91, 4-{[5-(3-Bromo-5-fluorophenyl)-1-(pyridin-3-yl)-1H-pyrazol-3-yl]carbonyl}piperazin-2-one] | 0.055 µM | 0.392 µM | 0.006 µM | – | – | – |
| O=C1CN(C(=O)c2cc(-c3cncc(C(F)(F)F)c3)n(-c3ccc(F)c(Cl)c3)n2)CCN1 [Example 107] | 0.263 µM | 1.28 µM | 0.299 µM | – | – | – |
| O=C1CN(C(=O)c2cc(-c3cc(F)cc(OC(F)(F)F)c3)n(-c3ccnc(Cl)c3)n2)CCN1 [Example 63, 4-({-(2-Chloropyridin-4-yl)-5-[3-fluoro-5-(trifluoromethoxy)phenyl]-1H-pyrazol-3-yl}carbonyl)piperazin-2-one] | 2.08 µM | 0.892 µM | 0.354 µM | – | – | – |
| Cc1cc(-n2nc(C(=O)N3CNC(=O)C3)cc2-c2cc(F)cc(Cl)c2)ccn1 [Example 21, 1-{[5-(3-Chloro-5-fluorophenyl)-1-(2-methylpyridin-4-yl)-1H-pyrazol-3-yl]carbonyl}imidazolidin-4-one] | 0.397 µM | 0.436 µM | 0.092 µM | – | – | – |
| Cc1cc(-n2nc(C(=O)N3CNC(=O)C3)cc2-c2cc(Br)cc(OC(F)(F)F)c2)ccn1 [Example 53, 1-({5-[3-Bromo-5-(trifluoromethoxy)phenyl]-1-(2-methylpyridin-4-yl)-1H-pyrazol-3-yl}carbonyl)imidazolidin-4-one] | 0.302 µM | 0.008 µM | 0.023 µM | – | – | – |
| O=C1CN(C(=O)c2cc(-c3cc(Br)cc(OC(F)(F)F)c3)n(-c3cncc(F)c3)n2)CN1 [Example 44, 1-({5-[3-Bromo-5-(trifluoromethoxy)phenyl]-1-(5-fluoropyridin-3-yl)-1H-pyrazol-3-yl}carbonyl)imidazolidin-4-one] | 0.274 µM | 0.02 µM | 0.018 µM | – | – | – |
| O=C(c1cc(-c2cc(F)cc(Cl)c2)n(-c2cccnc2)n1)N1CCSC1 [Example 5, [5-(3-Chloro-5-fluorophenyl)-1-(pyridin-3-yl)-1H-pyrazol-3-yl](1,3-thiazolidin-3-yl)methanone] | 0.533 µM | 1.32 µM | 0.023 µM | – | – | – |
| O=C(c1cc(-c2cc(Br)cc(OC(F)(F)F)c2)n(-c2ccc(F)nc2)n1)N1CCSC1 [Example 41, {5-[3-Bromo-5-(trifluoromethoxy)phenyl]-1-(6-fluoropyridin-3-yl)-1H-pyrazol-3-yl}(1,3-thiazolidin-3-yl)methanone] | 0.991 µM | 0.087 µM | 0.042 µM | – | – | – |
| O=C1CN(C(=O)c2cc(-c3cc(Br)cc(OC(F)(F)F)c3)n(-c3ccc(F)nc3)n2)CCN1 [Example 40, 4-({5-[3-Bromo-5-(trifluoromethoxy)phenyl]-1-(6-fluoropyridin-3-yl)-1H-pyrazol-3-yl}carbonyl)piperazin-2-one] | 0.213 µM | 0.044 µM | 0.013 µM | – | – | – |
| O=C(c1cc(-c2cc(Br)cc(OC(F)(F)F)c2)n(-c2cccnc2)n1)N1CC[S+]([O-])C1 (racemic) [Example 31-2, {5-[3-Bromo-5-(trifluoromethoxy)phenyl]-1-(pyridin-3-yl)-1H-pyrazol-3-yl}(1-oxido-1,3-thiazolidin-3-yl)methanone] | – | – | – | 0.336 µM | 0.041 µM | 0.01 µM |
| O=C1CN(C(=O)c2cc(-c3cc(Br)cc(OC(F)(F)F)c3)n(-c3cccnc3)n2)CCN1 [Example 29, 4-({5-[3-Bromo-5-(trifluoromethoxy)phenyl]-1-(pyridin-3-yl)-1H-pyrazol-3-yl}carbonyl)piperazin-2-one] | 0.097 µM | 0.032 µM | 0.012 µM | – | – | – |
| O=C1CN(C(=O)c2cc(-c3cc(F)cc(Cl)c3)n(-c3cncc(Cl)c3)n2)CCN1 [Example 10] | 1.71 µM | > 3.3 µM | 0.149 µM | – | – | – |
